For 13 molecules, EC50 and IC50 results are on record in US9072734B2, “Quaternary ammonium salt compounds” (Teijin Pharma Limited, priority 2009, dated 2015).

Molecules are shown by their SMILES. Structures can show the parent of a compound that is named as a salt.

For experiment [1], the target named is T1, human β2 adrenergic receptor (Homo sapiens, UniProt P07550).
T1 construct: expressed in transfected cells; host or cells: CHO-K1
Put plainly: Whole-cell cAMP Flashplate assay using CHO-K1 cells stably expressing human β2 adrenergic receptor. The experiment is classed as cell-based. Conditions: cAMP production. As to the method:
The β2 adrenergic receptor, which couples to Gs proteins, activates adenylate cyclase upon agonist binding to the receptor. As a result, cAMP is produced in cells. The activation ability of the β2 adrenergic receptor can be measured by measuring the amount of the cAMP with cAMP-Screen System (Applied Biosystems).
CHO-K1 cells expressing the human β2 adrenergic receptor suspended in Ham's F-12 media containing 10% FBS were seeded into 96-well plates at a volume of 100 μL/well. Next day, they were washed with 200 μL PBS(−), to which 80 μL of 0.5 mM IBMX solution (Ham's F-12 media containing 0.05% BSA) was then added, followed by incubation for 20 minutes at 37° C. in the presence of 5% carbon dioxide. 20 μL of 9 concentrations of test compound solutions (0.5 mM IBMX solution containing 1% DMSO) prepared at concentrations in a range of 0.01-1000 nM with 2-fold serial dilution) were added, followed by incubation for 20 minutes at 37° C. in the presence of 5% carbon dioxide. Then, 100 μL of Assay/Lysis Buffer (a reagent that comes with cAMP Screen System) was added. The cells were lysed by pipetting, further incubated for 30 minutes at 37° C., and then frozen at −80° C. After several days, samples, thawed at room temperature, were treated according to the protocol of cAMP Screen System, and then chemiluminescence was measured by EnVision (PerkinElmer, Inc.). The amount of cAMP was calculated from the standard curve for the standard attached to cAMP Screen System.
The concentrations of a test compound at which 50% of its maximal effect is reached (EC50 values) were analyzed by a four-parameter logistic model using XLfit4 (IDBS, Ltd.) for the amounts of cAMP production at different concentrations of the test compounds.
(In general: cAMP levels reflect the balance of adenylyl cyclase and phosphodiesterase activity.)

The target in experiment [2] is T2, human M3 muscarinic receptor (Homo sapiens, UniProt P20309).
T2 construct: expressed in transfected cells; host or cells: CHO-K1
Put plainly: Inhibitory effect on methacholine-induced calcium influx, FLIPR assay, CHO-K1 cells stably expressing the human M3 muscarinic receptor. The settings on record: inhibition of calcium influx induced by methacholine. Format: cell-based. The text has this: Muscarinic receptor subtypes (M1, M3 and M5 receptors), which couple to Gq proteins, activate the phospholipase C (PLC) pathway upon agonist binding to the receptor. As a result, the activated PLC hydrolyzes phosphatidyl inositol diphosphate (PIP2) to diacyl glycerol (DAG) and […] (IP3), which in turn generates calcium release from intracellular stores, i.e., endoplasmic and sarcoplasmic reticula. By utilizing FLIPR (Molecular Devices, Inc.) assay in which a calcium sensitive dye (Component A) is used that fluoresces when free calcium binds, the increase in intracellular calcium is measured on the basis of the change in the fluorescence intensity.
Methacholine was added to CHO-K1 cells stably expressing the human M3 muscarinic receptor to induce calcium influx and evaluate the inhibitory effect of test compounds. In the experiment, a FLIPR Calcium assay kit (Molecular Devices, Inc.) was used.
CHO-K1 cells stably expressing the human M3 muscarinic receptor suspended in Ham's F-12 media (Invitrogen, Co.) containing 10% fetal bovine serum (FBS) were seeded into 96-well FLIPR plates at a volume of 100 μL/well. Next day, 60 μL/well of Non-wash-dye solution (Hank's buffered salt solution, HBSS, containing 20 mM HEPES and 6.5 mM probenecid) was added to the cells, which were then incubated for an hour at 37° C. in the presence of 5% carbon dioxide. 20 μL of 10 concentrations of test compound solutions (HBSS containing 1% DMSO, 20 mM HEPES, 2.5 mM probenecid and 0.05% bovine serum albumin, BSA) prepared at concentrations in a range of 0.01-1000 nM with 2-fold serial dilution) were added, followed by incubation for 180 seconds. Then, 20 μL of 30 nM methacholine solution (HBSS containing 20 mM HEPES, 2.5 mM probenecid and 0.05% bovine serum albumin, BSA) was added, and fluorescence intensity was traced by the intracellular calcium influx measuring device FLIPR 96 (Molecular Devices, Inc.) for 170 seconds. The difference between the lowest and the highest values of the fluorescence intensity (FI) over the period of the measurement was used as a measured value. The percentages of inhibition by the test compounds were calculated according to the following formula from the measured value of the methacholin-added and test compound non-added sample (FIpositive), the measured value of the methacholin non-added and test compound non-added sample (FInegative), and the measured value of the methacholin-added and test compound-added sample (FItest). (%) Percentage of inhibition by test compound=[(1−(FItest−FInegative)/(FIpositive−FInegative)]×100
The 50% inhibitory concentrations (IC50 values) of test compounds were analyzed by a four-parameter logistic model using XLfit4 (IDBS, Ltd.) for the percentage of the inhibition by different concentrations of test compounds.

T1 sequence (P07550 whole entry): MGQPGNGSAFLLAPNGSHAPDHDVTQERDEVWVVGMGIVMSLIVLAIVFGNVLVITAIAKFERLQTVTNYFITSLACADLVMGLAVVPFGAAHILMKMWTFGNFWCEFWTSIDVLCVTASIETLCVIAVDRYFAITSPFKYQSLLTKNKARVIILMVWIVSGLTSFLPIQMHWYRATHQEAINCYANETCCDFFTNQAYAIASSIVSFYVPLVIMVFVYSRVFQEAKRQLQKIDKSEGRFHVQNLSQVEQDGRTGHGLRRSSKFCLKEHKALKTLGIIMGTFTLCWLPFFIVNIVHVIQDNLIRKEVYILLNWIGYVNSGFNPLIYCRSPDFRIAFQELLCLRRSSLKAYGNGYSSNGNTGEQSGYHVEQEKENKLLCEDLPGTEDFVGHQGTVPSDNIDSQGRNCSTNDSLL
T2 sequence (P20309 whole entry): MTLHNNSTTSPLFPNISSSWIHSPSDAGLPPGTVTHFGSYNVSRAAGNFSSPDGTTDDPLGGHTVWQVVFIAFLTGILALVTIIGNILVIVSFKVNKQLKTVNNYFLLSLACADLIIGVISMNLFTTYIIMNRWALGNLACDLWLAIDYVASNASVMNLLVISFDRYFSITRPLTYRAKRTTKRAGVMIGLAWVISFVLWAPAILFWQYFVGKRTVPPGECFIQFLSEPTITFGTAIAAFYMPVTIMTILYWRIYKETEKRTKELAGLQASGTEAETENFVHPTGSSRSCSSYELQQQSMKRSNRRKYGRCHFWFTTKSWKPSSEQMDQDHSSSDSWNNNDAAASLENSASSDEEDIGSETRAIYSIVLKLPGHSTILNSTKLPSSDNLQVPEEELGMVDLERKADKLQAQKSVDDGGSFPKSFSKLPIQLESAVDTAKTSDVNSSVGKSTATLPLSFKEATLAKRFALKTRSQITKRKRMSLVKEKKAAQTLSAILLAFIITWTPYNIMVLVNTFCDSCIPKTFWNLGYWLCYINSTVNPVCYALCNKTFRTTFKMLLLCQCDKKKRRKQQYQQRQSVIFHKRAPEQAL

One may read the EC50 as the midpoint of the concentration-response curve. Lower therefore signals a more potent agent. For orientation: IC50 means the concentration needed to halve the response being measured. For the molecule `C[N+]1(C)CCC(OC(=O)Nc2cc(CCCCC(=O)Nc3ccc(CNC[C@H](O)c4ccc(O)c5[nH]c(=O)ccc45)cc3)ccc2-c2ccccc2)CC1` [Example 49, 4-({[5-(4-{[4-({[(2R)-2-hydroxy-2-(8-hydroxy-2-oxo-1,2-dihydroquinolin-5-yl)ethyl]amino}methyl)phenyl]carbamoyl}butyl)-2-phenylphenyl]carbamoyl}oxy)-1,1-dimethylpiperidin-1-ium trifluoroacetate], in experiment [1], the EC50 was 2.3 nM. In addition, the IC50 in experiment [2] turned out to be 13.9 nM.

`C[N+]1(C)CCC(OC(=O)Nc2cc(OCCOc3ccc(CCNC[C@H](O)c4ccc(O)c5[nH]c(=O)ccc45)cc3)ccc2-c2ccccc2)CC1` [Example 79, 4-{[(5-{2-[4-(2-{[(2R)-2-hydroxy-2-(8-hydroxy-2-oxo-1,2-dihydroquinolin-5-yl)ethyl]amino}ethyl)phenoxy]ethoxy}-2-phenylphenyl)carbamoyl]oxy}-1,1-dimethylpiperidin-1-ium trifluoro acetate] came in with an EC50 in experiment [1] of 5.8 nM.

`C[N+]1(C)CCC(OC(=O)Nc2cc(CCC(=O)NCc3ccc(CNC[C@H](O)c4ccc(O)c5[nH]c(=O)ccc45)cc3)ccc2-c2ccccc2)CC1` [Example 65, 4-[({5-[2-({[4-({[(2R)-2-hydroxy-2-(8-hydroxy-2-oxo-1,2-dihydroquinolin-5-yl)ethyl]amino}methyl)phenyl]methyl}carbamoyl)ethyl]-2-phenylphenyl}carbamoyl)oxy]-1,1-dimethylpiperidin-1-ium trifluoroacetate] yielded an EC50 in experiment [1] of 14.5 nM.

For `C[N+]1(C)CCC(OC(=O)Nc2cc(CCCC(=O)NCc3ccc(CNC[C@H](O)c4ccc(O)c5[nH]c(=O)ccc45)cc3)ccc2-c2ccccc2)CC1` [Example 66, 4-[({5-[3-({[4-({[(2R)-2-hydroxy-2-(8-hydroxy-2-oxo-1,2-dihydroquinolin-5-yl)ethyl]amino}methyl)phenyl]methyl}carbamoyl)propyl]-2-phenylphenyl}carbamoyl)oxy]-1,1-dimethylpiperidin-1-ium trifluoroacetate], the EC50 in experiment [1] was 12.6 nM.

As for `C[N+]1(C)CCC(OC(=O)Nc2cc(C(=O)OCCCCCCCNCC(O)c3ccc(O)c4[nH]c(=O)ccc34)ccc2-c2ccccc2)CC1` [Example 75, 4-{[5-({[(7-{[(2R)-2-hydroxy-2-(8-hydroxy-2-oxo-1,2-dihydroquinolin-5-yl)ethyl]amino}heptyl)oxy]carbonyl}-2-phenylphenyl)carbamoyl]oxy}-1,1-dimethylpiperidin-1-ium trifluoro acetate], the half-maximal effective concentration (EC50) in experiment [1] amounted to 0.5 nM.

`C[N+]1(C)CCC(OC(=O)Nc2cc(OCCCCCCNC[C@H](O)c3ccc(O)c4[nH]c(=O)ccc34)ccc2-c2ccccc2)CC1` [Example 59, 4-[({5-[(6-{[(2R)-2-hydroxy-2-(8-hydroxy-2-oxo-1,2-dihydroquinolin-5-yl)ethyl]amino}hexyl)oxy]-2-phenylphenyl}carbamoyl)oxy]-1,1-dimethylpiperidin-1-ium trifluoroacetate] had a concentration for a half-maximal effect (EC50) in experiment [1] of 0.2 nM.

Turning to `C[N+]1(CCOc2ccccc2)CCC(OC(=O)Nc2cc(CCC(=O)Nc3ccc(CNC[C@H](O)c4ccc(O)c5[nH]c(=O)ccc45)cc3)ccc2-c2ccccc2)CC1` (stereo partly drawn) [Example 57, 4-({[5-(2-{[4-({[(2R)-2-hydroxy-2-(8-hydroxy-2-oxo-1,2-dihydroquinolin-5-yl)ethyl]amino}methyl)phenyl]carbamoyl}ethyl)-2-phenylphenyl]carbamoyl}oxy)-1-methyl-1-(2-phenoxyethyl)piperidin-1-ium trifluoro acetate], the response in experiment [1] was half-maximal at 2.7 nM (EC50).

For the molecule `C[N+]1(C)CCC(OC(=O)Nc2cc(OCC(=O)Nc3ccc(CNC[C@H](O)c4ccc(O)c5[nH]c(=O)ccc45)cc3)ccc2-c2ccccc2)CC1` [Example 64, 4-({[5-(2-{[4-({[(2R)-2-hydroxy-2-(8-hydroxy-2-oxo-1,2-dihydroquinolin-5-yl)ethyl]amino}methyl)phenyl]carbamoyl}methoxy)-2-phenylphenyl]carbamoyl}oxy)-1,1-dimethylpiperidin-1-ium trifluoroacetate], a half-maximal response in experiment [1] (EC50) required 38 nM.

In experiment [1], `C[N+]1(C)CCC(OC(=O)Nc2cc(CCC(=O)NCCCCCNC[C@H](O)c3ccc(O)c4[nH]c(=O)ccc34)ccc2-c2ccccc2)CC1` [Example 74, 4-({[5-(2-{[5-{[(2R)-2-hydroxy-2-(8-hydroxy-2-oxo-1,2-dihydroquinolin-5-yl)ethyl]amino}pentyl]carbamoyl}ethyl)-2-phenylphenyl]carbamoyl}oxy)-1,1-dimethylpiperidin-1-ium trifluoroacetate] had a half-maximal effective concentration (EC50) of 4.5 nM.

For the molecule `C[N+]1(C)[C@@H]2CC(OC(=O)Nc3cc(CCCC(=O)Nc4ccc5cc(CNC[C@H](O)c6ccc(O)c7[nH]c(=O)ccc67)ccc5c4)ccc3-c3ccccc3)C[C@H]1[C@@H]1O[C@@H]12` (stereo partly drawn) [Example 35, (1R,2R,4S,5S,7S)-7-({[5-(3-{[6-({[(2R)-2-hydroxy-2-(8-hydroxy-2-oxo-1,2-dihydroquinolin-5-yl)ethyl]amino}methyl)naphthalen-2-yl]carbamoyl}propyl)-2-phenylphenyl]carbamoyl}oxy)-9,9-dimethyl-3-oxa-9-azatricyclo[3.3.1.0^2,4]nonan-9-ium trifluoroacetate], the EC50 in experiment [1] was found to be 2.7 nM.

Molecule `C[N+]1(C)[C@@H]2CC(OC(=O)Nc3cc(CCC(=O)Nc4ccc5cc(CNC[C@H](O)c6ccc(O)c7[nH]c(=O)ccc67)ccc5c4)ccc3-c3ccccc3)C[C@H]1[C@@H]1O[C@@H]12` (stereo partly drawn) [Example 40, (1R,2R,4S,5S,7S)-7-({[5-(2-{[6-({[(2R)-2-hydroxy-2-(8-hydroxy-2-oxo-1,2-dihydroquinolin-5-yl)ethyl]amino}methyl)naphthalen-2-yl]carbamoyl}ethyl)-2-phenylphenyl]carbamoyl}oxy)-9,9-dimethyl-3-oxa-9-azatricyclo[3.3.1.0^2,4]nonan-9-ium trifluoroacetate] came in with a concentration giving a half-maximal response (EC50) in experiment [1] of 3.4 nM.

Molecule `C[N+]1(C)CCC(OC(=O)Nc2cc(/C=C/C(=O)Nc3ccc(CNC[C@H](O)c4ccc(O)c5[nH]c(=O)ccc45)cc3)ccc2-c2ccccc2)CC1` [Example 67, 4-[({5-[(1E)-2-{[4-({[(2R)-2-hydroxy-2-(8-hydroxy-2-oxo-1,2-dihydroquinolin-5-yl)ethyl]amino}methyl)phenyl]carbamoyl}-1-ethen-1-yl]-2-phenylphenyl}carbamoyl)oxy]-1,1-dimethylpiperidin-1-ium trifluoroacetate] registered an EC50 in experiment [1] of 0.4 nM.

Molecule `C[N+]1(C)CCC(OC(=O)Nc2cc(OCCCCCCCCCNC[C@H](O)c3ccc(O)c4[nH]c(=O)ccc34)ccc2-c2ccccc2)CC1` [Example 60, 4-[({5-[(9-{[(2R)-2-hydroxy-2-(8-hydroxy-2-oxo-1,2-dihydroquinolin-5-yl)ethyl]amino}nonyl)oxy]-2-phenylphenyl}carbamoyl)oxy]-1,1-dimethylpiperidin-1-ium trifluoroacetate] registered a 50% effective concentration (EC50) in experiment [1] of 1.2 nM.
